Assay results as given in PubChem BioAssay AID588725 (The Scripps Research Institute Molecular Screening Center, 2011).
The source made the active and inactive calls.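 The calls were made as follows: active = versus DMSO control, mean enzyme activity at or below 80% or at or above 120%; inactive = between 80% and 120% mean enzyme activity.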

Tests used:
Test in all cases: modulation of a 48-kinase panel, late-stage follow-up, selectivity assay for KLF5 inhibitor project, biochemical, 33P-ATP radiometric, Reaction Biology, powder sample (AID 588725)
[1] = system: Aurora A; settings: 33P-ATP radiometric activity, at 10 µM
[2] = system: CDK5/p25; settings: 33P-ATP radiometric activity, at 10 µM
[3] = system: CDK5/p35; settings: 33P-ATP radiometric activity, at 10 µM
[4] = target: Cyclin-dependent kinase 1 (Homo sapiens) (UniProt P06493); settings: 33P-ATP radiometric activity, at 10 µM
Cyclin-dependent kinase 1 (Homo sapiens), sequence (P06493 whole entry, looked up): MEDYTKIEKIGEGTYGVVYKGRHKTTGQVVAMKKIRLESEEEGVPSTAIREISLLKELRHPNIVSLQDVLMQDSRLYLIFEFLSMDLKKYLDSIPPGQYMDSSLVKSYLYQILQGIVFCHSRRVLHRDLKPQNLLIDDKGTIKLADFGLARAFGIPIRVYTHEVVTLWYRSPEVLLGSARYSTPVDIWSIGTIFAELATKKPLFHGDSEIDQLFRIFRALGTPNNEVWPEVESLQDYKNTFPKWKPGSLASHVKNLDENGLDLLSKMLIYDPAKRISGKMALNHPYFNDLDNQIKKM

[5] = target: Cyclin-dependent kinase 2 (Homo sapiens) (UniProt P24941); settings: 33P-ATP radiometric activity, at 10 µM
[6] = target: Dual specificity mitogen-activated protein kinase kinase 1 (Homo sapiens) (UniProt Q02750); settings: 33P-ATP radiometric activity, MEK1, at 10 µM
Dual specificity mitogen-activated protein kinase kinase 1 (Homo sapiens), sequence (Q02750 whole entry, looked up): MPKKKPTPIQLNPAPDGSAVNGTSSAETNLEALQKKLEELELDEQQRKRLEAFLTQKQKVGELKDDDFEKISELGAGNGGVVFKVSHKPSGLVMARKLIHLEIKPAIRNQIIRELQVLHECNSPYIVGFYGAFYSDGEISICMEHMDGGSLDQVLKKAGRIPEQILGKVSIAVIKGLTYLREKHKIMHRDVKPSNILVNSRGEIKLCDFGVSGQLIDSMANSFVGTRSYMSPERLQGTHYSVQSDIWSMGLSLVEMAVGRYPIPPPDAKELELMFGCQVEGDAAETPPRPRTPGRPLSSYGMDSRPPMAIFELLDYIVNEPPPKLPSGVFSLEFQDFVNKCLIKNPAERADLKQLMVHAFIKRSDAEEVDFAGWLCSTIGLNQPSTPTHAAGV

[7] = target: Epidermal growth factor receptor (Homo sapiens) (UniProt P00533); settings: 33P-ATP radiometric activity, EGFR, at 10 µM
[8] = target: Glycogen synthase kinase-3 alpha (Homo sapiens) (UniProt P49840); settings: 33P-ATP radiometric activity, GSK3a, at 10 µM
Glycogen synthase kinase-3 alpha (Homo sapiens), sequence (P49840 whole entry, looked up): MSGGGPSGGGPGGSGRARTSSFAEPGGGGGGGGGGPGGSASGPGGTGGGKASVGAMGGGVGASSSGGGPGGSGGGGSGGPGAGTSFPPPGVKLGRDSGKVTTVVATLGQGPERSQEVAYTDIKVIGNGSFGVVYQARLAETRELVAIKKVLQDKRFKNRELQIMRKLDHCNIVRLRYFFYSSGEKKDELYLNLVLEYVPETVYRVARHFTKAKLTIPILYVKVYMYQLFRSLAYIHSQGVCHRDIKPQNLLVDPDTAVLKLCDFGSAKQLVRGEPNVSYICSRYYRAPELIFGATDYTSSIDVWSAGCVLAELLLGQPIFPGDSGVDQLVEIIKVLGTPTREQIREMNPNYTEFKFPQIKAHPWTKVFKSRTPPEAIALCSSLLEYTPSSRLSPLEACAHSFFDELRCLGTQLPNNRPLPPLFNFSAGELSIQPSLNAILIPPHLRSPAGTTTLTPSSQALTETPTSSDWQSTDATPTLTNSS

[9] = target: Glycogen synthase kinase-3 beta (Homo sapiens) (UniProt P49841); settings: 33P-ATP radiometric activity, GSK3b, at 10 µM
Glycogen synthase kinase-3 beta (Homo sapiens), sequence (P49841 whole entry, looked up): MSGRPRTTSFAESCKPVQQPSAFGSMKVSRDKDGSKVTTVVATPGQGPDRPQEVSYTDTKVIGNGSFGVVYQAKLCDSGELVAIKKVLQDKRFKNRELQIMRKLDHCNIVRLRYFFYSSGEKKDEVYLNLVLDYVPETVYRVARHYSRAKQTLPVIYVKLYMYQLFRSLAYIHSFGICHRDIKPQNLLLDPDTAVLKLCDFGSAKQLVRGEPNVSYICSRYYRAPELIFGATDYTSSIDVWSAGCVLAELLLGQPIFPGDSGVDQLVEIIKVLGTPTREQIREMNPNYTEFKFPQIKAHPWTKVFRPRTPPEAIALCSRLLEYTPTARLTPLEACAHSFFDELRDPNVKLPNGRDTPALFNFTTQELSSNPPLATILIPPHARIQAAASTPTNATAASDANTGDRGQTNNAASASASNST

[10] = target: Inhibitor of nuclear factor kappa-B kinase subunit alpha (Homo sapiens) (UniProt O15111); settings: 33P-ATP radiometric activity, IKKa, at 10 µM
[11] = target: Inhibitor of nuclear factor kappa-B kinase subunit beta (Homo sapiens) (UniProt O14920); settings: 33P-ATP radiometric activity, IKKb, at 10 µM
[12] = system: JAK1; settings: 33P-ATP radiometric activity, at 10 µM
[13] = system: JNK1; settings: 33P-ATP radiometric activity, at 10 µM
[14] = system: MEK2; settings: 33P-ATP radiometric activity, at 10 µM
[15] = system: MEKK2; settings: 33P-ATP radiometric activity, at 10 µM
[16] = system: MEKK3; settings: 33P-ATP radiometric activity, at 10 µM
[17] = system: MKK6; settings: 33P-ATP radiometric activity, at 10 µM
[18] = system: MLK3; settings: 33P-ATP radiometric activity, at 10 µM
[19] = target: Mitogen-activated protein kinase 1 (Homo sapiens) (UniProt P28482); settings: 33P-ATP radiometric activity, ERK2, at 10 µM
Mitogen-activated protein kinase 1 (Homo sapiens), sequence (P28482 whole entry, looked up): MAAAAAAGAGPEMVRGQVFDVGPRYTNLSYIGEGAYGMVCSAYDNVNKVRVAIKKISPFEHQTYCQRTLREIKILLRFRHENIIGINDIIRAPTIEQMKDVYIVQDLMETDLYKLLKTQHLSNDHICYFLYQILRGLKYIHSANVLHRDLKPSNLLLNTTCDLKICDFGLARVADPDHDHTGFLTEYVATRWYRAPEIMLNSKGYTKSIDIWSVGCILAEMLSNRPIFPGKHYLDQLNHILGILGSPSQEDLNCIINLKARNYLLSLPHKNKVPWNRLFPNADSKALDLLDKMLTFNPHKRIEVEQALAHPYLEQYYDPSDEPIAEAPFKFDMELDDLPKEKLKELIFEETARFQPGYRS

[20] = target: Mitogen-activated protein kinase 10 (Homo sapiens) (UniProt P53779); settings: 33P-ATP radiometric activity, JNK3, at 10 µM
[21] = target: Mitogen-activated protein kinase 12 (Homo sapiens) (UniProt P53778); settings: 33P-ATP radiometric activity, P38g, at 10 µM
[22] = target: Mitogen-activated protein kinase 14 (Homo sapiens) (UniProt Q16539); settings: 33P-ATP radiometric activity, P38a, at 10 µM
[23] = target: Mitogen-activated protein kinase 3 (Homo sapiens) (UniProt P27361); settings: 33P-ATP radiometric activity, ERK1, at 10 µM
[24] = target: Mitogen-activated protein kinase 9 (Homo sapiens) (UniProt P45984); settings: 33P-ATP radiometric activity, JNK2, at 10 µM
[25] = system: P38b; settings: 33P-ATP radiometric activity, at 10 µM
[26] = system: P38d; settings: 33P-ATP radiometric activity, at 10 µM
[27] = system: PKCa; settings: 33P-ATP radiometric activity, at 10 µM
[28] = system: PKCb1; settings: 33P-ATP radiometric activity, at 10 µM
[29] = system: PKCb2; settings: 33P-ATP radiometric activity, at 10 µM
[30] = system: PKCepsilon; settings: 33P-ATP radiometric activity, at 10 µM
[31] = system: PKCeta; settings: 33P-ATP radiometric activity, at 10 µM
[32] = target: Protein kinase C delta type (Homo sapiens) (UniProt Q05655); settings: 33P-ATP radiometric activity, PKCd, at 10 µM
[33] = target: Protein kinase C gamma type (Homo sapiens) (UniProt P05129); settings: 33P-ATP radiometric activity, PKCg, at 10 µM
[34] = target: Protein kinase C iota type (Homo sapiens) (UniProt P41743); settings: 33P-ATP radiometric activity, PKCiota, at 10 µM
[35] = target: Protein kinase C theta type (Homo sapiens) (UniProt Q04759); settings: 33P-ATP radiometric activity, PKCtheta, at 10 µM
[36] = target: Protein kinase C zeta type (Homo sapiens) (UniProt Q05513); settings: 33P-ATP radiometric activity, PKCzeta, at 10 µM
Protein kinase C zeta type (Homo sapiens), sequence (Q05513 whole entry, looked up): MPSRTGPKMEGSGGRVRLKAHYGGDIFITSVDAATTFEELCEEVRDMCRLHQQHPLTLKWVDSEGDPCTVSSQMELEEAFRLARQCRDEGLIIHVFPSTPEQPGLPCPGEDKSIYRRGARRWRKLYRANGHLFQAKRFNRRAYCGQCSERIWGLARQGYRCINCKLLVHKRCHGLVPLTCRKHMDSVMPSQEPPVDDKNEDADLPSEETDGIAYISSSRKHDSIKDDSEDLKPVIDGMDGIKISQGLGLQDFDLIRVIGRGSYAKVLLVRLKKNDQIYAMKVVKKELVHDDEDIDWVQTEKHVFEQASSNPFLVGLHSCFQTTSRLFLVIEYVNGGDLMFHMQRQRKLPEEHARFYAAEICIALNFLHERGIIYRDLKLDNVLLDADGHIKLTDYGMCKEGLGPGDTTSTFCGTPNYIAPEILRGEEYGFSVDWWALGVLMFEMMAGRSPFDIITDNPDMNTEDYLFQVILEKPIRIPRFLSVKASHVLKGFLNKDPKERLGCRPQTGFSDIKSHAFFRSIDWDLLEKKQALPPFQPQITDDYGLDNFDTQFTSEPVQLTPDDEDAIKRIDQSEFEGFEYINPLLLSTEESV

[37] = target: RAC-alpha serine/threonine-protein kinase (Homo sapiens) (UniProt P31749); settings: 33P-ATP radiometric activity, AKT1, at 10 µM
[38] = target: RAC-beta serine/threonine-protein kinase (Homo sapiens) (UniProt P31751); settings: 33P-ATP radiometric activity, AKT2, at 10 µM
[39] = target: RAC-gamma serine/threonine-protein kinase (Homo sapiens) (UniProt Q9Y243); settings: 33P-ATP radiometric activity, AKT3, at 10 µM
[40] = target: Receptor tyrosine-protein kinase erbB-2 (Homo sapiens) (UniProt P04626); settings: 33P-ATP radiometric activity, ERBB2, at 10 µM
Receptor tyrosine-protein kinase erbB-2 (Homo sapiens), sequence (P04626 whole entry, looked up): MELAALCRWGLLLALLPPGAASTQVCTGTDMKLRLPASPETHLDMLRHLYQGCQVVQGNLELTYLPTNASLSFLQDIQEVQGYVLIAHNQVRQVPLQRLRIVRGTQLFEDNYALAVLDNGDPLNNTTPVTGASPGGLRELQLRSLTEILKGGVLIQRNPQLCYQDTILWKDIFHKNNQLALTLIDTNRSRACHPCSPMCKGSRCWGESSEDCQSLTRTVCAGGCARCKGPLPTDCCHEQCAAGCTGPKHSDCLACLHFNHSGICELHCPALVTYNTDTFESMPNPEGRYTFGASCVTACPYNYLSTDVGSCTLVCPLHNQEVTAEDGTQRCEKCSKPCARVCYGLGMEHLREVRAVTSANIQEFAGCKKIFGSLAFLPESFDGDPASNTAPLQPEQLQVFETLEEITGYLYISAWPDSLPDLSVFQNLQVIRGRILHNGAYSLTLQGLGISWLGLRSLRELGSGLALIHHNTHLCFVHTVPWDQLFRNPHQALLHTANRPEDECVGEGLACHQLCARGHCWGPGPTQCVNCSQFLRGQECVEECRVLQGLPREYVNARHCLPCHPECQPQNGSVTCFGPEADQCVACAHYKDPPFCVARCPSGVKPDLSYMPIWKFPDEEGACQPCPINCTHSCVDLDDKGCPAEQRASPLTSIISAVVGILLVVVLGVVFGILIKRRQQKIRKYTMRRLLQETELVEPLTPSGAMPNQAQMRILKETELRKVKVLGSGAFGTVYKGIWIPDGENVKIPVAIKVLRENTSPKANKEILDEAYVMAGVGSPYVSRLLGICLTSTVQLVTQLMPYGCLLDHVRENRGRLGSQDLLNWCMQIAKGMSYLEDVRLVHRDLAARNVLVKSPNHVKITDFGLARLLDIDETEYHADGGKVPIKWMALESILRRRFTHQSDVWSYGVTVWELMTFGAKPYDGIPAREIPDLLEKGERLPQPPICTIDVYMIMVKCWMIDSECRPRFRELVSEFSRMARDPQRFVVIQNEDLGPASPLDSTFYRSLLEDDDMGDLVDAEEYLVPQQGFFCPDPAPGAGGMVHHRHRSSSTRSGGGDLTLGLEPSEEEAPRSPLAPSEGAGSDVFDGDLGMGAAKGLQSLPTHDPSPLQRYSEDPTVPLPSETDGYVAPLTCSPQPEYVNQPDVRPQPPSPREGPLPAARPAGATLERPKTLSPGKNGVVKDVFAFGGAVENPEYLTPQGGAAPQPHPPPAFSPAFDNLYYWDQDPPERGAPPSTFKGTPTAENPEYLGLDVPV

[41] = target: Receptor tyrosine-protein kinase erbB-4 (Homo sapiens) (UniProt Q15303); settings: 33P-ATP radiometric activity, ERBB4, at 10 µM
[42] = target: Ribosomal protein S6 kinase beta-1 (Homo sapiens) (UniProt P23443); settings: 33P-ATP radiometric activity, p70S6K, at 10 µM
[43] = target: Serine/threonine-protein kinase B-raf (Homo sapiens) (UniProt P15056); settings: 33P-ATP radiometric activity, BRAF, at 10 µM
[44] = target: Serine/threonine-protein kinase D1 (Homo sapiens) (UniProt Q15139); settings: 33P-ATP radiometric activity, PKCmu, at 10 µM
Serine/threonine-protein kinase D1 (Homo sapiens), sequence (Q15139 whole entry, looked up): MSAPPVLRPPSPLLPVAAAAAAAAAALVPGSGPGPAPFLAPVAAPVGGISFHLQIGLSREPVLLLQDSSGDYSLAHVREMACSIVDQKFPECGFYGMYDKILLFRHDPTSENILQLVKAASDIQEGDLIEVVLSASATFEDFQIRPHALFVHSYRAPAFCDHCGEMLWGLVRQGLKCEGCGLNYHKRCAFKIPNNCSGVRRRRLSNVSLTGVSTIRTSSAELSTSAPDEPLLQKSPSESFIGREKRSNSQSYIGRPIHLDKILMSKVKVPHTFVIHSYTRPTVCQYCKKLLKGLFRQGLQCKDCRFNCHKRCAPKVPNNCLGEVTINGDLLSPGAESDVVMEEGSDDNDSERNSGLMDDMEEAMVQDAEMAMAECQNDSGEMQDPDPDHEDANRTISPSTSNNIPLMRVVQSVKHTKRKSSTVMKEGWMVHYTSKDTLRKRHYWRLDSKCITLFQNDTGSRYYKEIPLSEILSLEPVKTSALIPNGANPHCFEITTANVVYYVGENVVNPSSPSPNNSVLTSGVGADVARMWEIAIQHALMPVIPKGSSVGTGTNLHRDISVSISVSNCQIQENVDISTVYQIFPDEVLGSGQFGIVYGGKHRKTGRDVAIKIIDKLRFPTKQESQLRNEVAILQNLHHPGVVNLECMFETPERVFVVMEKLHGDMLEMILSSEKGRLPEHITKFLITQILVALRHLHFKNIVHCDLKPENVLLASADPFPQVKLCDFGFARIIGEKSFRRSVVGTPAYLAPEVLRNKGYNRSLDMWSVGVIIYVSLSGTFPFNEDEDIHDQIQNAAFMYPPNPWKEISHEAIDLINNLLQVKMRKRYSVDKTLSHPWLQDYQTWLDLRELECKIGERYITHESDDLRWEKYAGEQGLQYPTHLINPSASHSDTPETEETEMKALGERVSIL

[45] = target: Serine/threonine-protein kinase D3 (Homo sapiens) (UniProt O94806); settings: 33P-ATP radiometric activity, PKCnu, at 10 µM
[46] = system: p70S6Kb; settings: 33P-ATP radiometric activity, at 10 µM

Measured: enzyme activity

CN(C(=O)CNC(=O)/C=C/c1cccc(Cl)c1)C1CCS(=O)(=O)CC1
inactive: [1] 95.4% | [2] 108% | [3] 106% | [4]; CDK1/cyclin A 106% | [4]; CDK1/cyclin B 103% | [5]; CDK2/cyclin A 95.5% | [5]; CDK2/cyclin E 113% | [6] 108% | [7] 98% | [8] 104% | [9] 112% | [10] 97.3% | [11] 107% | [12] 91.3% | [13] 101% | [14] 105% | [15] 102% | [16] 99.6% | [17] 103% | [18] 101% | [19] 101% | [20] 102% | [21] 105% | [22] 96.3% | [23] 103% | [24] 108% | [25] 95.7% | [26] 98.3% | [27] 99.6% | [28] 98.5% | [29] 102% | [30] 100% | [31] 107% | [32] 104% | [33] 100% | [34] 103% | [35] 98.8% | [36] 102% | [37] 104% | [38] 107% | [39] 98.7% | [40] 104% | [41] 97% | [42] 104% | [43] 100% | [44] 106% | [45] 105% | [46] 100%
